{"source": "patent US10548894B2", "about": "“Combination therapy” (Array BioPharma Inc., priority 2013, dated 2020)", "key": {"[1]": {"system": "A-375 cells", "assay": "ATP-based CTG (Cell Titer Glo) cell viability assay, 72 h", "conditions": "Homo sapiens, A-375 parent, single agent", "procedure": "(§1) Compound stocks are prepared in DMSO at a final concentration of 10 mM. Working stocks are serially diluted in the appropriate cell culture medium in 3-fold increments to achieve final assay concentrations ranging from 2.7 μM to 1.2 nM.\n(§2) A-375 and WM-266-4 cells were purchased from American Type Culture Collection (ATCC). The A-375 cells were cultured in DMEM medium (ATCC) and the WM-266-4 cells were cultured in EMEM medium (ATCC) both supplemented with 10% fetal bovine serum (Gibco) and incubated at 37° C./5% CO2. The cell lines engineered to express commonly occurring alleles indicative of resistance were acquired from Novartis-Emeryville. These resistant models include, A-375 cells expressing mutant MEK1P124L, truncated p61-BRAFV600E, or mutant NRASQ61K, and WM-266-4 cells expressing mutant MEK1C121S, truncated p61-BRAFV600E, or mutant NRASQ61K. These cells were cultured in the appropriate parental medium with selection marker G418 and in the presence of 5 uM LFE158 (MEK mutants) or LIH720 (truncated p61-BRAFV600E).\n(§3) For screening, cells were seeded in 80 ul of medium in 384-well plates (Thermo Scientific, cat#4332) at 500 (A-375) or 750 (WM-266-4) cell densities per well using a MultiDrop Combi (Thermo-Fisher) with an 8-channel standard cassette. To promote an even distribution of cells across the entire well, cells were briefly centrifuged at 1000 RPM and incubated at room temperature 30 minutes. All plates were incubated at 37° C., 5% CO2 for 24 h prior to compound addition. Compound stock was freshly prepared in the appropriate culture medium, and added using a PAA robot equipped with a 200n1 pin tool. In a minimum of three replicate wells, single agent and combination effects after 72 hours, were assessed by both quantification of cellular ATP levels via Cell Titer Glo (Promega) according to the manufacturer's protocol and by microscopy imaging. For imaging, cells were fixed to the plates and permeabilized with a solution of 10% PFA, 0.3% TX-100 in PBS via a WellMate dispenser with controlled dispensing speeds. Cell nuclei were stained with Hoechst 33342 (H3570, Invitrogen), and all necessary washing steps were performed by a BioTek washer.\n(§4) Data comprised triplicate measurements for each treatment (compound) condition, 42 replicates of DMSO-treated wells, and duplicates of Staurosporin-treated wells. The data was normalized to the median of the DMSO measurements and summarized by calculating the median of the triplicates. Data was imported into Chalice to calculate compound synergies."}, "[2]": {"system": "A-375 cells expressing mutant NRASQ61K", "assay": "ATP-based CTG (Cell Titer Glo) cell viability assay, 72 h", "conditions": "Homo sapiens, A-375 NRASQ61K, single agent", "procedure": "as §1, §2, §3, §4"}, "[3]": {"system": "WM-266-4 cells expressing mutant MEK1C121S", "assay": "ATP-based CTG (Cell Titer Glo) cell viability assay, 72 h", "conditions": "Homo sapiens, WM-266-4 MEK1C121S, single agent", "procedure": "as §1, §2, §3, §4"}, "[4]": {"system": "A-375 cells expressing mutant MEK1P124L", "assay": "ATP-based CTG (Cell Titer Glo) cell viability assay, 72 h", "conditions": "Homo sapiens, A-375 MEK1P124L, single agent", "procedure": "as §1, §2, §3, §4"}, "[5]": {"system": "WM-266-4 cells", "assay": "ATP-based CTG (Cell Titer Glo) cell viability assay, 72 h", "conditions": "Homo sapiens, WM-266-4 parent, single agent", "procedure": "as §1, §2, §3, §4"}, "[6]": {"system": "A-375 cells expressing truncated p61-BRAFV600E", "assay": "Microscopy imaging assay (viable nuclei count), 72 h", "assay_type": "cell-based", "conditions": "Homo sapiens, A-375 p61 BRafV600E, single agent", "procedure": "(§5) Compound stocks are prepared in DMSO at a final concentration of 10 mM.\nas §2\nas §3, with “For imaging, cells were fixed to the plates and permeabilized with a solution of 10% PFA, 0.3% TX-100 in PBS via a WellMate dispenser with controlled dispensing speeds. Cell nuclei were stained with Hoechst 33342 (H3570, Invitrogen), and all necessary washing steps were performed by a BioTek washer.” left out\n(§6) An automated image analysis pipeline was established using custom-made scripts in the open-source, statistical programming language R, and functions of the BioConductor package EBImage. The goal was to quantify the number of viable nuclei (cells) per well as an approximation for cell viability. […]"}, "[7]": {"system": "WM-266-4 cells expressing mutant NRASQ61K", "assay": "Microscopy imaging assay (viable nuclei count), 72 h", "assay_type": "cell-based", "conditions": "Homo sapiens, WM-266-4 NRASQ61K, single agent", "procedure": "as §5, §2\nas §3, with “For imaging, cells were fixed to the plates and permeabilized with a solution of 10% PFA, 0.3% TX-100 in PBS via a WellMate dispenser with controlled dispensing speeds. Cell nuclei were stained with Hoechst 33342 (H3570, Invitrogen), and all necessary washing steps were performed by a BioTek washer.” left out\nas §6"}, "[8]": {"assay": "Clinical dose finding and tolerability (RP2D/MTD) in patients", "assay_type": "in vivo", "from_the_text": "The selection of the starting dose follows the ICH S9 guidelines for choosing a starting a dose for a first-in-human trial conducted in patients with cancer, and is shown in Table 6-2.\nTable 3 describes the starting doses and the provisional dose levels of study treatments for the combinations that may be evaluated during this trial. Additional dose levels not currently specified may be enrolled and additional patients may be enrolled at a dose level already tested if such changes are deemed necessary to provide optimal safety and tolerability, pharmacokinetic, and pharmacodynamic data."}, "[9]": {"system": "HMEX1906 primary melanoma model (HMEX1906-R5)", "assay": "Efficacy in HMEX1906-R5 primary melanoma model resistant to Compound of Formula (I)", "assay_type": "in vivo", "conditions": "PO; Compound C 250 mg/kg qd×21; Compound of Formula (I) 5 mg/kg bid×21", "procedure": "Objective: To evaluate the efficacy of the combination of the Compound of Formula (I) and the CDK 4 inhibitor Compound C in the HMEX1906 primary melanoma model that is grown in the presence of and is resistant to 5 mg/kg the Compound of Formula (I) (HMEX1906-R5)\nDrug formulation: Compound C is formulated in 0.5% MC/0.5% Tween80 and the Compound of Formula (I) is formulated in 20% PEG300/3% ETPGS.\nTumors are chopped/minced into cell line like suspension (tumors homogenized). 7 mL of matrigel added and 1.5 mL of HBSS. Suspension warmed in palm until Matrigel is thick and implanted with a 18G needle s.c right flank of female nude mice.\nThe mice were assigned to the following groups at 18 days post implant with an average tumor volume of 266 mm^3 and average body weight of 25 grams.\nGroups: 10 mice/group, route PO, dose volume 0.2 mL\nGroup 1: Vehicle, 0 mg/kg bid×14\nGroup 2: Compound C, 250 mg/kg qd×21\nGroup 3: Compound of Formula (I), 5 mg/kg bid×21\nGroup 4: Compound C 250 mg/kg qd×21+Compound of Formula (I) 5 mg/kg bid×21"}}}
{"smiles": "COC(=O)N[C@@H](C)CNc1nccc(-c2cn(C(C)C)nc2-c2cc(Cl)cc(NS(C)(=O)=O)c2F)n1", "note": "[Compound of Formula (I)]", "values": [{"measurement": "IC50", "setting": "[1]", "value": 0.004, "unit": "µM"}, {"measurement": "IC50", "setting": "[2]", "value": 0.134, "unit": "µM"}, {"measurement": "IC50", "setting": "[3]", "value": 0.035, "unit": "µM"}, {"measurement": "IC50", "setting": "[4]", "value": 0.333, "unit": "µM"}, {"measurement": "IC50", "setting": "[5]", "value": 0.002, "unit": "µM"}, {"measurement": "IC50", "setting": "[6]", "value": 0.849, "unit": "µM"}, {"measurement": "IC50", "setting": "[7]", "value": 0.868, "unit": "µM"}, {"measurement": "observed adverse events", "setting": "[8]; in clinic, tested at up to 700 mg QD", "value": "reversible and manageable"}, {"measurement": "RP2D (recommended phase II dose)", "setting": "[8]; single agent, patients", "value": 450, "unit": "mg QD"}, {"measurement": "Mean change of body weight", "setting": "[9]", "value": "3.5 ± 1.1 % ± SEM"}, {"measurement": "Mean change of tumor volume", "setting": "[9]", "value": "807 ± 106 mm3 ± SEM"}, {"measurement": "Mean change of tumor volume vs control (T/C)", "setting": "[9]", "value": 39, "unit": "%"}, {"measurement": "Survival (Survivors/Total)", "setting": "[9]", "value": "10/10"}]}
